Measurements as given in patent US8852554B2, “Radiolabelled PDE10 ligands” (Janssen Pharmaceutica NV, priority 2009, dated 2014).
Values joined by “and” are separate entries in the source; they are usually repeats but may differ in a detail not shown here. Equal entries are not always repeated.

Experiment: Biodistribution studies of the 18F tracers in rats
Format: in vivo, male Wistar rats
Settings: rat
Protocol: Biodistribution studies were carried out in healthy male Wister rats (body weight 200-500 g) at 2 min, 30 min and 60 min post injection (p.i.) (n=3/time point). For |^18F|B-4 only the 2 min and 30 min time points were studied. […] Blood and major organs were collected in tared tubes and weighed. The radioactivity in blood, organs and other body parts was measured using an automated gamma counter. The distribution of radioactivity in different parts of the body at different time points p.i. of the tracer was calculated and expressed as percentage of injected dose (% ID), and as percentage of injected dose per gram tissue (% ID/g) for the selected organs. % ID is calculated as cpm in organ/total cpm recovered. For calculation of total radioactivity in blood, blood mass was assumed to be 7% of the body mass.

Which results are given for `Cc1cccc(COc2ccc(-c3nn(CC[18F])cc3-c3ccncc3)cc2)n1` [[^18F]B-1]?
retention in the PDE10A-rich region striatum (biodistribution studies): no significant retention; 2 min/30 min ratios of % ID/g (normalized for body weight), all brain regions (i.v.): ≥ 2.49; Clearance, 2 min/30 min ratio of % ID/g (normalized for body weight), Blood (i.v.): 1.65; Clearance, 2 min/30 min ratio of % ID/g (normalized for body weight), Cerebellum (i.v.): 4.01; Clearance, 2 min/30 min ratio of % ID/g (normalized for body weight), Cerebrum total (i.v.): 2.88; Clearance, 2 min/30 min ratio of % ID/g (normalized for body weight), Cortex (i.v.): 3.47; Clearance, 2 min/30 min ratio of % ID/g (normalized for body weight), Hippocampus (i.v.): 3.06; Clearance, 2 min/30 min ratio of % ID/g (normalized for body weight), Rest of cerebrum (i.v.): 2.86; Clearance, 2 min/30 min ratio of % ID/g (normalized for body weight), Striatum (i.v.): 2.49; Clearance, 2 min/60 min ratio of % ID/g (normalized for body weight), Blood (i.v.): 1.83; Clearance, 2 min/60 min ratio of % ID/g (normalized for body weight), Cerebellum (i.v.): 6.60; Clearance, 2 min/60 min ratio of % ID/g (normalized for body weight), Cerebrum total (i.v.): 3.60; Clearance, 2 min/60 min ratio of % ID/g (normalized for body weight), Cortex (i.v.): 5.55; Clearance, 2 min/60 min ratio of % ID/g (normalized for body weight), Hippocampus (i.v.): 3.63; Clearance, 2 min/60 min ratio of % ID/g (normalized for body weight), Rest of cerebrum (i.v.): 3.29; Clearance, 2 min/60 min ratio of % ID/g (normalized for body weight), Striatum (i.v.): 3.41; % ID, Carcass (i.v., 2 min p.i.): 33.12 ± 2.3 % ID; % ID, Cerebellum (i.v., 2 min p.i.): 0.09 % ID and 0.091 ± 0.018 % ID; % ID, Cerebrum total (i.v., 2 min p.i.): 0.49 % ID and 0.490 ± 0.067 % ID; % ID, Cortex (i.v., 2 min p.i.): 0.069 ± 0.008 % ID; % ID, Heart (i.v., 2 min p.i.): 0.60 ± 0.1 % ID; % ID, Hippocampus (i.v., 2 min p.i.): 0.018 ± 0.004 % ID; % ID, Intestines (i.v., 2 min p.i.): 10.79 ± 1.5 % ID; % ID, Kidneys (i.v., 2 min p.i.): 4.24 ± 0.5 % ID; % ID, Liver (i.v., 2 min p.i.): 41.94 ± 2.2 % ID; % ID, Lungs (i.v., 2 min p.i.): 0.92 ± 0.2 % ID; % ID, Rest of cerebrum (i.v., 2 min p.i.): 0.367 ± 0.054 % ID; % ID, Spleen + Pancreas (i.v., 2 min p.i.): 1.92 ± 0.2 % ID; % ID, Stomach (i.v., 2 min p.i.): 3 % ID and 3.09 ± 0.1 % ID; % ID, Striatum (i.v., 2 min p.i.): 0.036 ± 0.012 % ID; % ID, Urine (i.v., 2 min p.i.): 0.09 ± 0.1 % ID; % ID/g normalized for body weight, Blood (i.v., 2 min p.i.): 0.06 ± 0.01 % ID/g × body wt. in kg; % ID/g normalized for body weight, Cerebellum (i.v., 2 min p.i.): 0.164 ± 0.01 % ID/g × body wt. in kg; % ID/g normalized for body weight, Cerebrum + Cerebellum (i.v., 2 min p.i.): 0.13 ± 0.01 % ID/g × body wt. in kg; % ID/g normalized for body weight, Cerebrum total (i.v., 2 min p.i.): 0.120 ± 0.01 % ID/g × body wt. in kg; % ID/g normalized for body weight, Cortex (i.v., 2 min p.i.): 0.199 ± 0.04 % ID/g × body wt. in kg; % ID/g normalized for body weight, Heart (i.v., 2 min p.i.): 0.21 ± 0.02 % ID/g × body wt. in kg; % ID/g normalized for body weight, Hippocampus (i.v., 2 min p.i.): 0.083 ± 0.01 % ID/g × body wt. in kg; % ID/g normalized for body weight, Kidneys (i.v., 2 min p.i.): 0.47 ± 0.05 % ID/g × body wt. in kg; % ID/g normalized for body weight, Liver (i.v., 2 min p.i.): 0.92 ± 0.05 % ID/g × body wt. in kg; % ID/g normalized for body weight, Lungs (i.v., 2 min p.i.): 0.19 ± 0.08 % ID/g × body wt. in kg; % ID/g normalized for body weight, Rest of cerebrum (i.v., 2 min p.i.): 0.111 ± 0.00 % ID/g × body wt. in kg; % ID/g normalized for body weight, Spleen + Pancreas (i.v., 2 min p.i.): 0.40 ± 0.03 % ID/g × body wt. in kg; % ID/g normalized for body weight, Striatum (i.v., 2 min p.i.): 0.175 ± 0.02 % ID/g × body wt. in kg; % ID/g, Blood (i.v., 2 min p.i.): 0.21 ± 0.02 % ID/g; % ID/g, Cerebellum (i.v., 2 min p.i.): 0.607 ± 0.019 % ID/g; % ID/g, Cerebrum + Cerebellum (i.v., 2 min p.i.): 0.47 ± 0.03 % ID/g; % ID/g, Cerebrum total (i.v., 2 min p.i.): 0.444 ± 0.026 % ID/g; % ID/g, Cortex (i.v., 2 min p.i.): 0.734 ± 0.148 % ID/g; % ID/g, Heart (i.v., 2 min p.i.): 0.76 ± 0.09 % ID/g; % ID/g, Hippocampus (i.v., 2 min p.i.): 0.307 ± 0.041 % ID/g; % ID/g, Liver (i.v., 2 min p.i.): 3.40 ± 0.31 % ID/g; % ID/g, Lungs (i.v., 2 min p.i.): 0.69 ± 0.34 % ID/g; % ID/g, Rest of cerebrum (i.v., 2 min p.i.): 0.411 ± 0.023 % ID/g; % ID/g, Spleen + Pancreas (i.v., 2 min p.i.): 1.47 ± 0.15 % ID/g; % ID/g, Striatum (i.v., 2 min p.i.): 0.648 ± 0.075 % ID/g; striatum/blood ratio (from % ID/g normalized for body weight) (i.v., 2 min p.i.): 3.10; striatum/cerebellum ratio (from % ID/g normalized for body weight) (i.v., 2 min p.i.): 1.07; striatum/cortex ratio (from % ID/g normalized for body weight) (i.v., 2 min p.i.): 0.88; striatum/hippocampus ratio (from % ID/g normalized for body weight) (i.v., 2 min p.i.): 2.11; total initial brain uptake (i.v., 2 min p.i.): 0.59 % ID; % ID, Blood (i.v., 30 min p.i.): 2.40 ± 0.4 % ID; % ID, Carcass (i.v., 30 min p.i.): 25.50 ± 2.1 % ID; % ID, Cerebellum (i.v., 30 min p.i.): 0.028 ± 0.000 % ID; % ID, Cerebrum total (i.v., 30 min p.i.): 0.172 ± 0.012 % ID; % ID, Cortex (i.v., 30 min p.i.): 0.026 ± 0.004 % ID; % ID, Heart (i.v., 30 min p.i.): 0.21 ± 0.0 % ID; % ID, Hippocampus (i.v., 30 min p.i.): 0.006 ± 0.000 % ID; % ID, Intestines (i.v., 30 min p.i.): 14.67 ± 3.3 % ID; % ID, Kidneys (i.v., 30 min p.i.): 1.44 ± 0.2 % ID; % ID, Liver (i.v., 30 min p.i.): 45.29 ± 5.2 % ID; % ID, Lungs (i.v., 30 min p.i.): 0.42 ± 0.1 % ID; % ID, Rest of cerebrum (i.v., 30 min p.i.): 0.127 ± 0.010 % ID; % ID, Spleen + Pancreas (i.v., 30 min p.i.): 0.57 ± 0.2 % ID; % ID, Stomach (i.v., 30 min p.i.): 10 % ID and 9.73 ± 1.7 % ID; % ID, Striatum (i.v., 30 min p.i.): 0.013 ± 0.001 % ID; % ID, Urine (i.v., 30 min p.i.): 0.29 ± 0.0 % ID; % ID/g normalized for body weight, Blood (i.v., 30 min p.i.): 0.03 ± 0.01 % ID/g × body wt. in kg
